Test results: ChEMBL document CHEMBL1201862, “PubChem BioAssay data set” (2004)
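48-hour exposure; five concentrations; linearly interpolated endpoints. The concentration for 50% growth inhibition is given as GI50.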 Activity calls are given as the source filed them. Cut-off read from the data, not from the text of the source: active = GI50 up to about 1.1 µM and inactive = higher.

Legend:
Assay in all cases: NCI-60 cell line screen, 48 h
786-0 = system: 786-0
A498 = system: A498
A549 = system: A549
CAKI-1 = system: CAKI-1
EKVX = system: EKVX
HCT-116 = system: HCT-116
IGROV-1 = system: IGROV-1
K562 = system: K562
MDA-MB-435 = system: MDA-MB-435
NCI-H226 = system: NCI-H226
NCI-H23 = system: NCI-H23
NCI/ADR-RES = system: NCI/ADR-RES
OVCAR-5 = system: OVCAR-5
RXF 393 = system: RXF 393
SF-268 = system: SF-268
SF-539 = system: SF-539
SK-MEL-28 = system: SK-MEL-28
SNB-19 = system: SNB-19
T47D = system: T47D
Malme-3M = system: Malme-3M

Measured: GI50

O=C(CCc1cc(O)cc(O)c1)NCCc1ccc(O)c(O)c1
inactive: 786-0 > 100 µM | A498 > 100 µM | A549 > 100 µM | CAKI-1 > 100 µM | EKVX > 100 µM | HCT-116 > 100 µM | IGROV-1 > 100 µM | K562 > 10 µM | MDA-MB-435 21.6 µM | NCI-H226 > 100 µM | NCI-H23 > 100 µM | NCI/ADR-RES > 100 µM | OVCAR-5 > 100 µM | RXF 393 > 100 µM | SF-268 > 100 µM | SF-539 > 100 µM | SK-MEL-28 > 100 µM | SNB-19 > 100 µM | T47D > 100 µM

O=C1NC(c2ccc3ccccc3c2)Nc2ccccc21 (configuration not stated)
inactive: 786-0 45.7 µM | A498 56 µM | CAKI-1 59.7 µM | EKVX 45.6 µM | HCT-116 33.1 µM | IGROV-1 23.6 µM | K562 2.54 µM | MDA-MB-435 3.12 µM | NCI-H226 32.1 µM | NCI-H23 24.5 µM | NCI/ADR-RES 62.4 µM | RXF 393 51.9 µM | SF-268 > 100 µM | SF-539 20.7 µM | SK-MEL-28 > 100 µM | SNB-19 51.8 µM | T47D 71.4 µM

Nc1nc(Nc2cc(F)c(Cl)c(F)c2)cc(=O)[nH]1
inactive: 786-0 76.4 µM | A498 94.8 µM | A549 76.4 µM | CAKI-1 > 100 µM | EKVX 61.1 µM | HCT-116 74.3 µM | IGROV-1 > 100 µM | MDA-MB-435 44.4 µM | Malme-3M > 100 µM | NCI-H226 > 100 µM | NCI-H23 95.9 µM | NCI/ADR-RES > 100 µM | OVCAR-5 > 100 µM | SF-268 74.5 µM | SF-539 > 100 µM | SK-MEL-28 > 100 µM | SNB-19 37 µM | T47D 77.6 µM

COc1ccc(N)c(C(O)CCNC(C)=O)c1 (configuration not stated)
inactive: 786-0 > 100 µM | A498 > 100 µM | A549 > 100 µM | CAKI-1 > 100 µM | EKVX > 100 µM | HCT-116 > 100 µM | IGROV-1 > 100 µM | MDA-MB-435 > 100 µM | NCI-H226 > 100 µM | NCI-H23 > 100 µM | NCI/ADR-RES > 100 µM | OVCAR-5 > 100 µM | RXF 393 > 100 µM | SF-268 > 100 µM | SF-539 > 100 µM | SNB-19 > 100 µM | T47D > 100 µM

COc1cc(C(C)(C)C)c(OC(=O)/C=C/C(=O)O/C=C/[N+](=O)[O-])c(C(C)(C)C)c1
inactive: 786-0 34.4 µM | A498 44.4 µM | A549 21.4 µM | CAKI-1 23.5 µM | EKVX 69 µM | HCT-116 46.5 µM | IGROV-1 69.8 µM | K562 > 100 µM | MDA-MB-435 21.2 µM | NCI-H226 28.1 µM | NCI-H23 19.4 µM | NCI/ADR-RES 23.4 µM | OVCAR-5 > 100 µM | RXF 393 27.6 µM | SF-268 30.2 µM | SF-539 34.4 µM | T47D 41.8 µM

CCOC(=O)c1cc(=O)oc2c1N(C)c1ncccc1N2
inactive: 786-0 > 100 µM | A498 > 100 µM | A549 > 100 µM | CAKI-1 > 100 µM | HCT-116 > 100 µM | K562 > 100 µM | MDA-MB-435 > 100 µM | NCI-H226 > 100 µM | NCI-H23 > 100 µM | NCI/ADR-RES > 100 µM | OVCAR-5 > 100 µM | RXF 393 > 100 µM | SF-268 > 100 µM | SK-MEL-28 > 100 µM | SNB-19 > 100 µM | T47D > 100 µM

CC1(C)OCC(C2CCC3(C)C4=CCC5C(C)(C)C(O)CCC5(C)C4CCC23C)CC(O)C1O (configuration not stated)
inactive: 786-0 13.4 µM | A498 24.7 µM | A549 16.5 µM | CAKI-1 14 µM | EKVX 14.6 µM | HCT-116 13.2 µM | IGROV-1 18.7 µM | K562 4.22 µM | MDA-MB-435 16.4 µM | Malme-3M 15.6 µM | NCI-H226 17.3 µM | NCI-H23 17.8 µM | NCI/ADR-RES 20.3 µM | OVCAR-5 19.1 µM | SF-268 18.3 µM | SF-539 18.8 µM | SK-MEL-28 17.3 µM | SNB-19 14.8 µM | T47D 8.61 µM

O=C1C[C@H](c2ccccc2)O[C@@H](c2ccccc2)C1
inactive: 786-0 88.1 µM | A549 > 100 µM | CAKI-1 > 100 µM | EKVX > 100 µM | HCT-116 > 100 µM | IGROV-1 > 100 µM | K562 26.9 µM | MDA-MB-435 > 100 µM | Malme-3M > 100 µM | NCI-H226 > 100 µM | NCI-H23 > 100 µM | NCI/ADR-RES > 100 µM | OVCAR-5 > 100 µM | RXF 393 > 100 µM | SF-268 > 100 µM | SF-539 > 100 µM | SK-MEL-28 > 100 µM | SNB-19 > 100 µM | T47D > 100 µM
